Reference: PubChem BioAssay (NCI)
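Assay format: 96-well plates, 48-hour exposure. GI50 = concentration required for 50% inhibition of growth. Definition used: TGI = concentration required for complete inhibition of growth.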

Key:
Test in all cases: growth of human tumour cells (NCI), 48 h
OVCAR-5 ovarian = tested on: OVCAR-5 ovarian
NCI-H23 lung = tested on: NCI-H23 lung
LOX IMVI melanoma = tested on: LOX IMVI melanoma
COLO 205 colon = tested on: COLO 205 colon
MALME-3M melanoma = tested on: MALME-3M melanoma
NCI/ADR-RES ovarian = tested on: NCI/ADR-RES ovarian
CAKI-1 renal = tested on: CAKI-1 renal
SNB-75 CNS = tested on: SNB-75 CNS
SK-MEL-28 melanoma = tested on: SK-MEL-28 melanoma
NCI-H522 lung = tested on: NCI-H522 lung

## Nc1no[n+]([O-])c1-c1nnc2c(n1)-c1ccccc1C2=O
OVCAR-5 ovarian
  GI50: 1.88 µM
  TGI: 3.77 µM
NCI-H23 lung
  GI50: 1.88 µM
  TGI: 4.35 µM
LOX IMVI melanoma
  GI50: 1.81 µM
  TGI: 4.16 µM
COLO 205 colon
  GI50: 1.93 µM
  TGI: 4.35 µM
MALME-3M melanoma
  GI50: 1.74 µM
  TGI: 3.45 µM
NCI/ADR-RES ovarian
  GI50: 3.73 µM
  TGI: 32.3 µM
CAKI-1 renal
  GI50: 2.3 µM
  TGI: 6.67 µM
SNB-75 CNS
  GI50: 17.4 µM
  TGI: 34.5 µM
SK-MEL-28 melanoma
  GI50: 3.91 µM
  TGI: 13.4 µM
NCI-H522 lung
  GI50: 2.02 µM
  TGI: 5.87 µM

## COc1cc(NCCC2CCCCN2)c2ncccc2c1OC (stereo not given)
OVCAR-5 ovarian
  GI50: 19.1 µM
  TGI: 62.7 µM
NCI-H23 lung
  GI50: 7.09 µM
  TGI: 31.3 µM
LOX IMVI melanoma
  GI50: 1.95 µM
  TGI: 5.49 µM
COLO 205 colon
  GI50: 10 µM
  TGI: 24.2 µM
MALME-3M melanoma
  GI50: 14.2 µM
  TGI: 30 µM
NCI/ADR-RES ovarian
  GI50: 22.8 µM
  TGI: 70.5 µM
CAKI-1 renal
  GI50: 9.56 µM
  TGI: 30.2 µM
SNB-75 CNS
  GI50: 3.85 µM
  TGI: 19.5 µM
SK-MEL-28 melanoma
  GI50: 11.7 µM
  TGI: 24.8 µM
NCI-H522 lung
  GI50: 2.41 µM
  TGI: 9.05 µM

## Cc1nn(-c2ccccc2)c2nc(C)n(-c3ccc(Br)cc3)c(=O)c12
OVCAR-5 ovarian
  GI50: 1.99 µM
  TGI: > 100 µM
NCI-H23 lung
  GI50: 0.823 µM
  TGI: > 100 µM
LOX IMVI melanoma
  GI50: 0.51 µM
  TGI: > 100 µM
COLO 205 colon
  GI50: 0.549 µM
  TGI: 18.4 µM
MALME-3M melanoma
  GI50: 12.1 µM
  TGI: 76.9 µM
NCI/ADR-RES ovarian
  GI50: 0.449 µM
  TGI: > 100 µM
CAKI-1 renal
  GI50: 0.416 µM
  TGI: > 100 µM
SNB-75 CNS
  GI50: 0.181 µM
  TGI: 0.725 µM
SK-MEL-28 melanoma
  GI50: 3.46 µM
  TGI: > 100 µM
NCI-H522 lung
  GI50: 0.326 µM
  TGI: 18.6 µM

## CCC(C(=O)[C@@H](C)[C@@H](O)[C@H](C)[C@@H]1O[C@@H]([C@@H](CC)C(=O)ONC(=O)c2ccccc2)CC[C@@H]1C)[C@H]1O[C@]2(C=CC(=O)[C@]3(CC[C@@](C)([C@H]4CC[C@](O)(CC)[C@H](C)O4)O3)O2)[C@H](C)C[C@@H]1C (stereo not given in full)
OVCAR-5 ovarian
  GI50: 0.498 µM
  TGI: 2.18 µM
NCI-H23 lung
  GI50: 0.175 µM
  TGI: 2.08 µM
LOX IMVI melanoma
  GI50: 0.316 µM
  TGI: 1.84 µM
COLO 205 colon
  GI50: 0.122 µM
  TGI: 1.78 µM
MALME-3M melanoma
  GI50: 0.168 µM
  TGI: 1.06 µM
NCI/ADR-RES ovarian
  GI50: 0.374 µM
  TGI: 2.28 µM
CAKI-1 renal
  GI50: 1.01 µM
  TGI: 2.71 µM
SNB-75 CNS
  GI50: 0.238 µM
  TGI: 2.04 µM
SK-MEL-28 melanoma
  GI50: 1.6 µM
  TGI: 8.57 µM
NCI-H522 lung
  GI50: 0.0547 µM
  TGI: 1.4 µM

## Cc1ccc(NC2=CC(=O)C(=O)c3ccccc32)cc1
OVCAR-5 ovarian
  GI50: 1.9 µM
  TGI: 3.54 µM
NCI-H23 lung
  GI50: 1.56 µM
  TGI: 4.1 µM
LOX IMVI melanoma
  GI50: 2.11 µM
  TGI: 6.45 µM
COLO 205 colon
  GI50: 1.65 µM
  TGI: 3.1 µM
MALME-3M melanoma
  GI50: 1.63 µM
  TGI: 3.17 µM
NCI/ADR-RES ovarian
  GI50: 2.17 µM
  TGI: 17.4 µM
CAKI-1 renal
  GI50: 3.14 µM
  TGI: 16.5 µM
SNB-75 CNS
  GI50: 0.779 µM
  TGI: 2.11 µM
SK-MEL-28 melanoma
  GI50: 1.84 µM
  TGI: 3.58 µM
NCI-H522 lung
  GI50: 1.45 µM
  TGI: 3.18 µM

## Cn1cc(-c2nc(-c3cn(C)c4ncccc34)cs2)c2ccccc21
OVCAR-5 ovarian
  GI50: 4.92 µM
  TGI: 45.1 µM
NCI-H23 lung
  GI50: 3.14 µM
  TGI: 23.9 µM
LOX IMVI melanoma
  GI50: 1.27 µM
  TGI: > 100 µM
COLO 205 colon
  GI50: 1.68 µM
  TGI: 14 µM
MALME-3M melanoma
  GI50: 0.468 µM
  TGI: 5.64 µM
NCI/ADR-RES ovarian
  GI50: 0.62 µM
  TGI: > 100 µM
CAKI-1 renal
  GI50: 0.972 µM
  TGI: > 100 µM
SNB-75 CNS
  GI50: 1.44 µM
  TGI: 4.83 µM
SK-MEL-28 melanoma
  GI50: 2.09 µM
  TGI: > 100 µM
NCI-H522 lung
  GI50: 0.402 µM
  TGI: 11.9 µM

## COc1ccc2nc3ccccc3c(NCc3ccccc3)c2c1
OVCAR-5 ovarian
  GI50: 2.25 µM
  TGI: 7.35 µM
NCI-H23 lung
  GI50: 1.95 µM
  TGI: 5.52 µM
LOX IMVI melanoma
  GI50: 1.61 µM
  TGI: 3.29 µM
COLO 205 colon
  GI50: 1.54 µM
  TGI: 3.54 µM
MALME-3M melanoma
  GI50: 1.75 µM
  TGI: 3.22 µM
NCI/ADR-RES ovarian
  GI50: 2.09 µM
  TGI: 6.69 µM
CAKI-1 renal
  GI50: 1.94 µM
  TGI: 6.82 µM
SNB-75 CNS
  GI50: 2.48 µM
  TGI: 10 µM
SK-MEL-28 melanoma
  GI50: 1.75 µM
  TGI: 3.57 µM
NCI-H522 lung
  GI50: 1.77 µM
  TGI: 4.6 µM

## Oc1ccc(/C=N/NC(=S)Nc2cccnc2)nc1
OVCAR-5 ovarian
  TGI: > 100 µM
NCI-H23 lung
  TGI: 61.9 µM
LOX IMVI melanoma
  TGI: > 100 µM
COLO 205 colon
  TGI: > 100 µM
MALME-3M melanoma
  TGI: 9.12 µM
NCI/ADR-RES ovarian
  TGI: 9.59 µM
CAKI-1 renal
  TGI: > 100 µM
SNB-75 CNS
  TGI: 97 µM
SK-MEL-28 melanoma
  TGI: > 100 µM
NCI-H522 lung
  TGI: 21.7 µM

## Cc1cn2c(/C=C3\C(=O)N(C)c4ccc(Cl)cc43)c(C)nc2s1
OVCAR-5 ovarian
  GI50: 3.16 µM
  TGI: 12.2 µM
NCI-H23 lung
  GI50: 3.71 µM
  TGI: 27.3 µM
LOX IMVI melanoma
  GI50: 5.05 µM
  TGI: > 100 µM
COLO 205 colon
  GI50: 3.47 µM
  TGI: > 100 µM
MALME-3M melanoma
  GI50: 69.6 µM
  TGI: > 100 µM
NCI/ADR-RES ovarian
  GI50: 1.9 µM
  TGI: 5.66 µM
CAKI-1 renal
  GI50: 3.11 µM
  TGI: > 100 µM
SNB-75 CNS
  GI50: 2.52 µM
  TGI: 7.32 µM
SK-MEL-28 melanoma
  GI50: 6.6 µM
  TGI: > 100 µM
NCI-H522 lung
  GI50: 2.76 µM
  TGI: 7.76 µM

## Oc1cc(O)c2c(c1)OC(c1ccc(O)c(O)c1)C(O)C2c1c(O)cc(O)c2c1OC(c1ccc(O)c(O)c1)C(O)C2 (stereo not given)
OVCAR-5 ovarian
  TGI: > 100 µM
NCI-H23 lung
  TGI: > 100 µM
LOX IMVI melanoma
  TGI: > 100 µM
COLO 205 colon
  TGI: > 100 µM
MALME-3M melanoma
  TGI: > 100 µM
NCI/ADR-RES ovarian
  TGI: > 100 µM
CAKI-1 renal
  TGI: 67.5 µM
SNB-75 CNS
  TGI: > 100 µM
SK-MEL-28 melanoma
  TGI: > 100 µM
NCI-H522 lung
  TGI: > 100 µM

## C(=C\c1ccc(OCC2CO2)cc1)/C1=NCOC1 (stereo not given)
OVCAR-5 ovarian
  GI50: 16.4 µM
  TGI: 37.1 µM
NCI-H23 lung
  GI50: 10.7 µM
  TGI: 40.2 µM
LOX IMVI melanoma
  GI50: 3.35 µM
  TGI: 13.6 µM
COLO 205 colon
  GI50: 6.33 µM
  TGI: 32.4 µM
MALME-3M melanoma
  GI50: 19.9 µM
  TGI: 58.7 µM
NCI/ADR-RES ovarian
  GI50: 3.86 µM
  TGI: 14.9 µM
CAKI-1 renal
  GI50: 16.3 µM
  TGI: 40.8 µM
SNB-75 CNS
  GI50: 16.6 µM
  TGI: 31.6 µM
SK-MEL-28 melanoma
  GI50: 6.3 µM
  TGI: 21.4 µM
NCI-H522 lung
  GI50: 3.13 µM
  TGI: 13.1 µM

## CCN(CC)CCCC(C)Nc1ccnc(/C=C/c2ccc(Cl)cc2)c1 (stereo not given)
OVCAR-5 ovarian
  TGI: 8.04 µM
NCI-H23 lung
  TGI: 23.7 µM
LOX IMVI melanoma
  TGI: 3.28 µM
COLO 205 colon
  TGI: 3.01 µM
MALME-3M melanoma
  TGI: 3.08 µM
NCI/ADR-RES ovarian
  TGI: 15.3 µM
CAKI-1 renal
  TGI: 4.11 µM
SNB-75 CNS
  TGI: 4.5 µM
SK-MEL-28 melanoma
  TGI: 3.41 µM
NCI-H522 lung
  TGI: 3.81 µM

## NCCCNc1nc2ccccc2c2c(=O)c3cc(F)cc(Cl)c3sc12
OVCAR-5 ovarian
  GI50: 1.65 µM
  TGI: 3.1 µM
NCI-H23 lung
  GI50: 1.56 µM
  TGI: 3.07 µM
LOX IMVI melanoma
  GI50: 1.68 µM
  TGI: 3.14 µM
COLO 205 colon
  GI50: 1.92 µM
  TGI: 4.41 µM
MALME-3M melanoma
  GI50: 1.68 µM
  TGI: 3.32 µM
NCI/ADR-RES ovarian
  GI50: 1.73 µM
  TGI: 3.46 µM
CAKI-1 renal
  GI50: 1.58 µM
  TGI: 2.95 µM
SNB-75 CNS
  GI50: 1.54 µM
  TGI: 2.96 µM
SK-MEL-28 melanoma
  GI50: 1.94 µM
  TGI: 3.49 µM
NCI-H522 lung
  GI50: 1.76 µM
  TGI: 3.68 µM
